For 16 compounds, IC50 results are on record in patent US8901111B2, “Aryl-substituted heterocyclic urea modulators of fatty acid amide hydrolase” (Janssen Pharmaceutica NV, priority 2009, dated 2014).

The target of test [1] is T1, FAAH (Homo sapiens, UniProt O00519).
T1 sequence (O00519 1-579): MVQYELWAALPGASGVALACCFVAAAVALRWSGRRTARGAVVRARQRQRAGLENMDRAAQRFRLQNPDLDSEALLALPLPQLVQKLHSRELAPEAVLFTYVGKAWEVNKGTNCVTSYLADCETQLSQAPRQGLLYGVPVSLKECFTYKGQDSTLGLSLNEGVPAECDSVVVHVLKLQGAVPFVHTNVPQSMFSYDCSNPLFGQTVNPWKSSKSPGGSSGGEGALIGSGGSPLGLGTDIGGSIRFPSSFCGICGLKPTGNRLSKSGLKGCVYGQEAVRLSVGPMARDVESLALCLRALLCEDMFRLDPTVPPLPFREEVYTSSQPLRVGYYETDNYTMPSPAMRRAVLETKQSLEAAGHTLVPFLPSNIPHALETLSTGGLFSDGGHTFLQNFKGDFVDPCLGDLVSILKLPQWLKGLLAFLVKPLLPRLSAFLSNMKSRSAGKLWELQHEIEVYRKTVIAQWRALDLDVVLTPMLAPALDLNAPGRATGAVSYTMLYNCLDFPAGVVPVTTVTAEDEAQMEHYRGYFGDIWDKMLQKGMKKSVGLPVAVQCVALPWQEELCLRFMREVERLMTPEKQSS
As to the kind of experiment: Assay Method 1: FAAH assay, 3H-anandamide hydrolysis in homogenate of cells transfected with human FAAH. The settings on record: cell homogenate, 3H-AEA 80 nM, 1 h at rt, average of results. Format: biochemical. More on the design: expressed in transfected cells; crude homogenate (T84 cell pellets named as alternative). As to the method:
A. Transfection of Cells with Human FAAH
(§1) A 10-cm tissue culture dish with a confluent monolayer of SK-N-MC cells was split 2 days (d) prior to transfection. Using sterile technique, the media was removed and the cells were detached from the dish by the addition of trypsin. One fifth of the cells were then placed onto a new 10-cm dish. Cells were grown in a 37° C. incubator with 5% CO2 in Minimal Essential Media Eagle with 10% Fetal Bovine Serum. After 2 d, cells were approximately 80% confluent. These cells were removed from the dish with trypsin and pelleted in a clinical centrifuge. The pellet was re-suspended in 400 μL complete media and transferred to an electroporation cuvette with a 0.4 cm gap between the electrodes. Supercoiled human FAAH cDNA (1 μg) was added to the cells and mixed. The voltage for the electroporation was set at 0.25 kV, and the capacitance was set at 960 After electroporation, the cells were diluted into complete media (10 mL) and plated onto four 10-cm dishes. Because of the variability in the efficiency of electroporation, four different concentrations of cells were plated. The ratios used were 1:20, 1:10, and 1:5, with the remainder of the cells being added to the fourth dish. The cells were allowed to recover for 24 h before adding the selection media (complete media with 600 μg/mL G418). After 10 d, dishes were analyzed for surviving colonies of cells. Dishes with well-isolated colonies were used. Cells from individual colonies were isolated and tested.
(§2) T84 frozen cell pellets or transfected SK-N-MC cells (contents of 1×15 cm culture dishes) were homogenized in 50 mL of FAAH assay buffer (125 mM Tris, 1 mM EDTA, 0.2% Glycerol, 0.02% Triton X-100, 0.4 mM Hepes, pH 9). The assay mixture consisted of 50 μL of the cell homogenate, 10 μL of the test compound, and 40 μL of anandamide [1-^3H-ethanolamine] (^3H-AEA, Perkin-Elmer, 10.3 Ci/mmol), which was added last, for a final tracer concentration of 80 nM. The reaction mixture was incubated at rt for 1 h. During the incubation, 96-well Multiscreen filter plates (catalog number MAFCNOB50; Millipore, Bedford, Mass., USA) were loaded with 25 μL of activated charcoal (Multiscreen column loader, catalog number MACL09625, Millipore) and washed once with 100 μL of MeOH. Also during the incubation, 96-well DYNEX MicroLite plates (catalog number NL510410) were loaded with 100 μL of MicroScint40 (catalog number 6013641, Packard Bioscience, Meriden, Conn., USA). After the 1 h incubation, 60 μL of the reaction mixture were transferred to the charcoal plates, which were then assembled on top of the DYNEX plates using Centrifuge Alignment Frames (catalog number MACF09604, Millipore). The unbound labeled ethanolamine was centrifuged through to the bottom plate (5 min at 2000 rpm), which was preloaded with the scintillant, as described above. The plates were sealed and left at rt for 1 h before counting on a Hewlett Packard TopCount.
(§3) Results for compounds tested in these assays are summarized in Table 1, as an average of results obtained. Compounds were tested in the free base or trifluoroacetic acid salt form. Compounds tested in the trifluoroacetic acid salt form are indicated as such by a “*” designation after the example number. Where activity is shown as greater than (>) a particular value, the value is the solubility limit of the compound in the assay medium or the highest concentration tested in the assay.

Test [2] has as its target T2, rat FAAH (Rattus norvegicus, UniProt P97612).
T2 construct: expressed in transfected cells; crude homogenate
T2 sequence (P97612 1-579): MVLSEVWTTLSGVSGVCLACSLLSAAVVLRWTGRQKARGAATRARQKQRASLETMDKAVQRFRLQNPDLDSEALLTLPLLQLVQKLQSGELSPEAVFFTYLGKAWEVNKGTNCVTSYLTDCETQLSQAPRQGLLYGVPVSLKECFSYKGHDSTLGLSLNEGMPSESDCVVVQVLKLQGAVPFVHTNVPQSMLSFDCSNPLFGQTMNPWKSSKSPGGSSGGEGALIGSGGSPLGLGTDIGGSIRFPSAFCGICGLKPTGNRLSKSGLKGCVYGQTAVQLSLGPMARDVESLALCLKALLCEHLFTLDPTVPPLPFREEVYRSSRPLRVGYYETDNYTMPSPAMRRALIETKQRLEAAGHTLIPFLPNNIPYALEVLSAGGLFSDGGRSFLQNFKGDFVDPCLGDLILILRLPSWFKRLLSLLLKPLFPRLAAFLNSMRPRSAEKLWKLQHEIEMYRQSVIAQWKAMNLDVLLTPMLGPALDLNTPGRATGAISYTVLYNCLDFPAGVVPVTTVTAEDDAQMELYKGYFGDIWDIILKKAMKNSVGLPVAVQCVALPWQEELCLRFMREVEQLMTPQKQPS
As to the kind of experiment: Assay Method 2: FAAH assay, 3H-anandamide hydrolysis in homogenate of cells transfected with rat FAAH. Format: biochemical. The settings on record: cell homogenate, 3H-AEA 80 nM, 1 h at rt, average of results. As to the method:
A. Transfection of Cells with Rat FAAH
as §1, with “rat” for “human”, “960 μF.” for “960”
as §2, §3

The structures appear in SMILES notation. Where a name gives a salt, the structure may show the parent alone.

Turning to `CCCCOc1cccc(OCCC2CN(C(=O)Nc3cccnc3)C2)c1` [Example 33, 3-[2-(3-Butoxy-phenoxy)-ethyl]-azetidine-1-carboxylic acid pyridin-3-ylamide], the IC50 in test [1] stood at 34 nM; in test [2], 2000 nM.

Regarding `O=C(Nc1cccnc1)N1CC(CCOc2ccc(Cl)c(Cl)c2)C1` [Example 34, 3-[2-(3,4-Dichloro-phenoxy)-ethyl]-azetidine-1-carboxylic acid pyridin-3-ylamide], the results for the half-inhibitory concentration (IC50) in test [1] and in test [2] were 30 nM and 54 nM, respectively.

`O=C(Nc1cccnc1)N1CC(CCOc2ccc3ccccc3c2)C1` [Example 35, 3-[2-(Naphthalen-2-yloxy)-ethyl]-azetidine-1-carboxylic acid pyridin-3-ylamide, trifluoroacetate salt]: the half-inhibitory concentration (IC50) worked out at 160 nM in test [1] and 350 nM in test [2].

For `O=C(Nc1cccnc1)N1CC(CCOc2ccc3ccccc3n2)C1` [Example 36, 3-[2-(Quinolin-2-yloxy)-ethyl]-azetidine-1-carboxylic acid pyridin-3-ylamide], the IC50 in test [1] came to 200 nM; in test [2] it was 430 nM.

Regarding `C#Cc1cccc(OCCC2CN(C(=O)Nc3cccnc3)C2)c1` [Example 37, 3-[2-(3-Ethynyl-phenoxy)-ethyl]-azetidine-1-carboxylic acid pyridin-3-ylamide, trifluoroacetate salt], the IC50 in test [1] stood at 140 nM; in test [2], 820 nM.

On to `O=C(Nc1cncc2ccccc12)N1CC(CCOc2cccc(Oc3ccc(Cl)cc3)c2)C1` [Example 38, 3-{2-[3-(4-Chloro-phenoxy)-phenoxy]-ethyl}-azetidine-1-carboxylic acid isoquinolin-4-ylamide], for which the IC50 in test [1] is 27 nM; in test [2], 5 nM.

In the case of `O=C(Nc1ccc(-n2nccn2)nc1)N1CC(CCOc2cccc(Oc3ccc(Cl)cc3)c2)C1` [Example 39, 3-{2-[3-(4-Chloro-phenoxy)-phenoxy]-ethyl}-azetidine-1-carboxylic acid (6-[1,2,3]triazol-2-yl-pyridin-3-yl)-amide], the IC50 came out at 13 nM in test [1] and 10 nM in test [2].

Turning to `O=C(Nc1cnc2[nH]ccc2c1)N1CC(CCOc2cccc(Oc3ccc(Cl)cc3)c2)C1` [Example 40, 3-{2-[3-(4-Chloro-phenoxy)-phenoxy]-ethyl}-azetidine-1-carboxylic acid (1H-pyrrolo[2,3-b]pyridin-5-yl)-amide], the IC50 in test [1] was 3 nM; in test [2] it was 4 nM.

For the compound `O=C(Nc1ccc2nccn2c1)N1CC(CCOc2cccc(Oc3ccc(Cl)cc3)c2)C1` [Example 41, 3-{2-[3-(4-Chloro-phenoxy)-phenoxy]-ethyl}-azetidine-1-carboxylic acid imidazo[1,2-a]pyridin-6-ylamide], the results for the IC50 in test [1] and in test [2] were 3000 nM and 1000 nM, respectively.

`O=C(Nc1cnc2ccccn12)N1CC(CCOc2cccc(Oc3ccc(Cl)cc3)c2)C1` [Example 42, 3-{2-[3-(4-Chloro-phenoxy)-phenoxy]-ethyl}-azetidine-1-carboxylic acid imidazo[1,2-a]pyridin-3-ylamide]: the IC50 in test [1] was found to be 30 nM; in test [2], 24 nM.

Consider `O=C(Nc1noc2ccccc12)N1CC(CCOc2cccc(Oc3ccc(Cl)cc3)c2)C1` [Example 43, 3-{2-[3-(4-Chloro-phenoxy)-phenoxy]-ethyl}-azetidine-1-carboxylic acid benzo[d]isoxazol-3-ylamide], for which the half-inhibitory concentration (IC50) in test [1] stood at 4 nM; in test [2], 1 nM.

For `O=C(Nc1cccnc1)N1CC(CCOc2cccc(Oc3ccc(Cl)cc3)c2)C1` [Example 44, 3-{2-[3-(4-Chloro-phenoxy)-phenoxy]-ethyl}-azetidine-1-carboxylic acid pyridin-3-ylamide], the half-maximal inhibitory concentration (IC50) in test [1] stood at 13 nM; in test [2], 27 nM.

As for `O=C(Nc1cccnc1)N1CC(CCOc2ccc(Cl)c(C(F)(F)F)c2)C1` [Example 45, 3-[2-(4-Chloro-3-trifluoromethyl-phenoxy)-ethyl]-azetidine-1-carboxylic acid pyridin-3-ylamide], the half-inhibitory concentration (IC50) in test [1] was found to be 700 nM; in test [2], 43 nM.

`O=C(Nc1cccnc1)N1CC(CCOc2cccc(C(F)(F)F)c2)C1` [Example 46, 3-[2-(3-Trifluoromethyl-phenoxy)-ethyl]-azetidine-1-carboxylic acid pyridin-3-ylamide]: the values for the IC50 in test [1] and in test [2] were 1600 nM and 615 nM, respectively.

On to `O=C(Nc1cccnc1)N1CC(CCOc2cc(Cl)cc(Cl)c2)C1` [Example 47, 3-[2-(3,5-Dichloro-phenoxy)-ethyl]-azetidine-1-carboxylic acid pyridin-3-ylamide], for which the concentration for half-maximal inhibition (IC50) is 1000 nM in test [1] and 250 nM in test [2].

On to `O=C(Nc1cnccc1Cl)N1CC(CCOc2cccc(Oc3ccc(Cl)cn3)c2)C1` [Example 48, 3-{2-[3-(5-Chloro-pyridin-2-yloxy)-phenoxy]-ethyl}-azetidine-1-carboxylic acid (4-chloro-pyridin-3-yl)-amide], for which the values for the IC50 in test [1] and in test [2] were 1 nM and 5 nM, respectively.
